Measurements taken from patent US5981558A, “DC107 derivatives” (Kyowa Hakko Kogyo Co., Ltd., priority 1996, dated 1999).
Read-outs that look alike come from different tables or passages of the source.

Tests used:
[1] = tested on: Sarcoma 180 mouse solid tumor; assay: Antitumor activity against Sarcoma 180 mouse solid tumor; format: in vivo, mouse (ddY); conditions: Sarcoma-180, iv, 168 h
Procedure: To a ddY mouse were intraperitoneally transplanted 5×10^6 sarcoma 180 cells. On the seventh day from the transplant, the cells were collected from the ascites, washed once with sterilized physiological saline, and then diluted with sterilized physiological saline to prepare a cell suspension having a concentration of 5×10^7 cells/mL. This suspension was transplanted in an amount of 0.01 mL to a subcutaneous part of the right axilla of each of male ddY mice each weighing 20±1 g.
A test compound was dissolved in physiological saline containing polyoxyethylene sorbitan monolaurate. At 24 hours after the tumor transplant, 0.2 mL of the solution was intravenously administered to the tail of each of a group of five mice.

[2] = tested on: HeLa S3 cells; assay: HeLa S3 Cell Growth Inhibition Test; format: cell-based; conditions: Homo sapiens
In short: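 HeLa S3 cells seeded overnight in MEM with 10% FBS, then exposed to compound for 72 h at 37 °C. Viable cells stained with Neutral Red, dye extracted, absorbance read at 550 nm; IC50 derived against untreated cells.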

[3] = 16 mg/kg i.v. once, 24 hours after transplant, tumor volume on day 7, read-out: T/C (tumor volume ratio treated/control)
[4] = HeLa S3, 72 h, HeLa S3, 72 hours incubation, Neutral Red, read-out: IC50, HeLa S3 cell growth inhibition
[5] = read-out: T/C (tumor volume ratio treated/control)
[6] = HeLa S3, 72 h, read-out: IC50, HeLa S3 cell growth inhibition, HeLa S3, 72 hours incubation, Neutral Red
[7] = 8.0 mg/kg i.v. once, 24 hours after transplant, tumor volume on day 7, read-out: T/C (tumor volume ratio treated/control)
[8] = 4.0 mg/kg i.v. once, 24 hours after transplant, tumor volume on day 7, read-out: T/C (tumor volume ratio treated/control)
[9] = HeLa S3, 72 hours incubation, Neutral Red, read-out: IC50, HeLa S3 cell growth inhibition

Structure (SMILES)	response vs control in vivo at 16 mg/kg [1, 3] [%]	IC50 [2, 4] [nM]	IC50 [2, 6] [nM]	also measured
CC1=CC(O)C(=O)C=CC=Cc2csc(n2)C(C)N2C(=O)CC(C(C)(O)C(=O)SCOC(=O)C(C)(C)NC(=O)OCc3ccccc3)(CC1)[S+]2[O-] (stereo not shown) [Compound 3]	21	130	–	–
CC1=CC(OC2CCCCO2)C(=O)C=CC=Cc2csc(n2)C(C)N2C(=O)CC(C(C)(O)C(=O)SCOC(=O)c3ccccc3)(CC1)[S+]2[O-] (stereo not shown) [Compound 7]	–	–	50	response vs control in vivo at 4 mg/kg [1, 5]: 23%
CC1=CC(O)C(=O)C=CC=Cc2csc(n2)C(C)N2C(=O)CC(C(C)(O)C(=O)SCOC(=O)C3CCC(C(=O)O)CC3)(CC1)[S+]2[O-] (stereo not shown) [Compound 11]	–	–	–	response vs control in vivo at 4 mg/kg [1, 5]: 48%; IC50 ([2]; HeLa S3, 72 h, read-out: IC50, HeLa S3 cell growth inhibition, footnote *: Value after 72 hours of drug treatment): 100 nM
CC1=CC(OC2CCCCO2)C(=O)C=CC=Cc2csc(n2)C(C)N2C(=O)CC(C(C)(O)C(=O)SCOC(=O)C3CCC(C(=O)O)CC3)(CC1)[S+]2[O-] (stereo not shown) [Compound 12]	–	870	–	response vs control in vivo at 8 mg/kg [1, 7]: 47%
CC1=CC(O)C(=O)C=CC=Cc2csc(n2)C(C)N2C(=O)CC(C(C)(O)C(=O)SCOC(=O)CO)(CC1)[S+]2[O-] (stereo not shown) [Compound 14]	–	–	380	response vs control in vivo at 2 mg/kg [1, 5]: 44%
CC1=CC(OC2CCCCO2)C(=O)C=CC=Cc2csc(n2)C(C)N2C(=O)CC(C(C)(O)C(=O)SCOC(=O)CO)(CC1)[S+]2[O-] (stereo not shown) [Compound 15]	–	–	14	response vs control in vivo at 1 mg/kg [1, 5]: 45%
CC1=CC(O)C(=O)C=CC=Cc2csc(n2)C(C)N2C(=O)CC(C(C)(O)C(=O)SCOC(=O)CNC(=O)OC(C)(C)C)(CC1)[S+]2[O-] (stereo not shown) [Compound 16]	–	–	6.1	response vs control in vivo at 2 mg/kg [1, 5]: 47%
CC1=CC(O)C(=O)C=CC=Cc2csc(n2)C(C)N2C(=O)CC(C(C)(O)C(=O)SCOC(=O)CC[C@H](NC(=O)OC(C)(C)C)C(=O)OC(C)(C)C)(CC1)[S+]2[O-] (stereo partly shown) [Compound 22]	–	7.4	–	response vs control in vivo at 4 mg/kg [1, 8]: 42%
COC(=O)[C@H](CCC(=O)OCSC(=O)C(C)(O)C12CCC(C)=CC(O)C(=O)C=CC=Cc3csc(n3)C(C)N(C(=O)C1)[S+]2[O-])NC(=O)[C@H]1O[C@@H]2OC(C)(C)O[C@@H]2[C@H]2OC(C)(C)O[C@H]21 (stereo partly shown) [Compound 25]	30	800	–	–
CC(=O)NC(Cc1ccc(OC(C)=O)cc1)C(=O)OCSC(=O)C(C)(O)C12CCC(C)=CC(O)C(=O)C=CC=Cc3csc(n3)C(C)N(C(=O)C1)[S+]2[O-] (stereo not shown) [Compound 29]	–	400	–	response vs control in vivo at 4 mg/kg [1, 8]: 47%
COC(=O)NCC(=O)OCSC(=O)C(C)(O)C12CC/C(C)=C/C(OC3CCCCO3)C(=O)/C=C/C=C\c3csc(n3)C(C)N(C(=O)C1)[S+]2[O-] (stereo not shown) [Compound 40]	–	15	–	response vs control in vivo at 4 mg/kg [1, 8]: 36%
C/C1=C\C(OC2CCCCO2)C(=O)/C=C/C=C\c2csc(n2)C(C)N2C(=O)CC(C(C)(O)C(=O)SCOC(=O)CCNC(=O)[C@H]3O[C@@H]4OC(C)(C)O[C@@H]4[C@H]4OC(C)(C)O[C@H]43)(CC1)[S+]2[O-] (stereo partly shown) [Compound 45]	–	–	44	response vs control in vivo at 8 mg/kg [1, 5]: 45%
CC(=O)Oc1ccc(C(=O)OCSC(=O)C(C)(O)C23CC/C(C)=C/C(OC4CCCCO4)C(=O)/C=C/C=C\c4csc(n4)C(C)N(C(=O)C2)[S+]3[O-])cc1 (stereo not shown) [Compound 53]	–	35	–	response vs control in vivo at 8 mg/kg [1, 7]: 50%
CC(=O)Oc1cccc(C(=O)OCSC(=O)C(C)(O)C23CC/C(C)=C/C(OC4CCCCO4)C(=O)/C=C/C=C\c4csc(n4)C(C)N(C(=O)C2)[S+]3[O-])c1 (stereo not shown) [Compound 54]	–	15	–	response vs control in vivo at 4 mg/kg [1, 8]: 47%
C/C1=C\C(OC2CCCCO2)C(=O)/C=C/C=C\c2csc(n2)C(C)N2C(=O)CC(C(C)(O)C(=O)SCOC(=O)CCNC(=O)[C@@]34O[C@@H](CO)[C@@H](O)[C@@H]3OC(C)(C)O4)(CC1)[S+]2[O-] (stereo partly shown) [Compound 64]	–	–	35	response vs control in vivo at 8 mg/kg [1, 5]: 43%
COCOCc1oc(=O)oc1CSC(=O)C(C)(O)C12CC/C(C)=C/C(OC3CCCCO3)C(=O)/C=C/C=C\c3csc(n3)C(C)N(C(=O)C1)[S+]2[O-] (stereo not shown) [Compound 78]	–	2.2	–	response vs control in vivo at 8 mg/kg [1, 7]: 50%
C/C1=C\C(O)C(=O)/C=C/C=C\c2csc(n2)C(C)N2C(=O)CC(C(C)(O)C(=O)SCc3oc(=O)oc3COC3C[C@H](O[Si](C)(C)C(C)(C)C)[C@@H](O[Si](C)(C)C(C)(C)C)[C@H](C)O3)(CC1)[S+]2[O-] (stereo partly shown) [Compound 79]	–	–	–	response vs control in vivo at 8 mg/kg [1, 7]: 45%; IC50 [2, 9]: 790 nM
C/C1=C\C(OC2CCCCO2)C(=O)/C=C/C=C\c2csc(n2)C(C)N2C(=O)CC(C(C)(O)C(=O)SCc3oc(=O)oc3CO)(CC1)[S+]2[O-] (stereo not shown) [Compound 87]	–	–	33	response vs control in vivo at 16 mg/kg [1, 5]: 40%
C/C1=C\C(O)C(=O)/C=C/C=C\c2csc(n2)C(C)N2C(=O)CC(C(C)(O)C(=O)SCc3oc(=O)oc3COC=O)(CC1)[S+]2[O-] (stereo not shown) [Compound 88]	–	–	320	response vs control in vivo at 8 mg/kg [1, 5]: 49%
C/C1=C\C(OC2CCCCO2)C(=O)/C=C/C=C\c2csc(n2)C(C)N2C(=O)CC(C(C)(O)C(=O)SCc3oc(=O)oc3COC(=O)c3cnc4ccccc4n3)(CC1)[S+]2[O-] (stereo not shown) [Compound 94]	–	–	33	response vs control in vivo at 8 mg/kg [1, 5]: 43%
CC(=O)NCC(=O)OCc1oc(=O)oc1CSC(=O)C(C)(O)C12CC/C(C)=C/C(OC3CCCCO3)C(=O)/C=C/C=C\c3csc(n3)C(C)N(C(=O)C1)[S+]2[O-] (stereo not shown) [Compound 98]	40	70	–	–
COCCOCC(=O)OCc1oc(=O)oc1CSC(=O)C(C)(O)C12CC/C(C)=C/C(O)C(=O)/C=C/C=C\c3csc(n3)C(C)N(C(=O)C1)[S+]2[O-] (stereo not shown) [Compound 99]	–	87	–	response vs control in vivo at 8 mg/kg [1, 7]: 40%
COCCOCCOCC(=O)OCc1oc(=O)oc1CSC(=O)C(C)(O)C12CC/C(C)=C/C(O)C(=O)/C=C/C=C\c3csc(n3)C(C)N(C(=O)C1)[S+]2[O-] (stereo not shown) [Compound 101]	27	100	–	–
COCCOCCOCC(=O)OCc1oc(=O)oc1CSC(=O)C(C)(O)C12CC/C(C)=C/C(OC3CCCCO3)C(=O)/C=C/C=C\c3csc(n3)C(C)N(C(=O)C1)[S+]2[O-] (stereo not shown) [Compound 102]	46	38	–	–
C=C(CSC(=O)C(C)(O)C12CC/C(C)=C/C(OC3CCCCO3)C(=O)/C=C/C=C\c3csc(n3)C(C)N(C(=O)C1)[S+]2[O-])C(=O)OC (stereo not shown) [Compound 112]	–	64	–	response vs control in vivo at 8 mg/kg [1, 7]: 24%
COC1(OC2/C=C(\C)CCC3(C(C)(O)C(=O)SCC4=C(C)OC(C)(C)OC4=O)CC(=O)N(C(C)c4nc(cs4)/C=C\C=C\C2=O)[S+]3[O-])CCOCC1 (stereo not shown) [Compound 122]	37	1800	–	–
CC1=C(CSC(=O)C(C)(O)C23CC/C(C)=C/C(OC4CCCCO4)C(=O)/C=C/C=C\c4csc(n4)C(C)N(C(=O)C2)[S+]3[O-])C(=O)OC(C)(C)O1 (stereo not shown) [Compound 123]	14	600	–	–
CC1=C(CSC(=O)C(C)(O)C23CC/C(C)=C/C(OC4CCCCO4)C(=O)/C=C/C=C\c4csc(n4)C(C)N(C(=O)C2)[S+]3[O-])C(=O)OC2(CCOCC2)O1 (stereo not shown) [Compound 125]	43	47	–	–
CCOC(=O)N1CCC2(CC1)OC(=O)C(CSC(=O)C(C)(O)C13CC/C(C)=C/C(OC4CCCCO4)C(=O)/C=C/C=C\c4csc(n4)C(C)N(C(=O)C1)[S+]3[O-])=C(C)O2 (stereo not shown) [Compound 127]	29	–	–	IC50 [2, 9]: 33 nM
